Data taken from ChEMBL document CHEMBL4507276 (2021).

Columns and labels:
[1] = target: Phosphatidylinositol 3-kinase C2 domain-containing subunit gamma (Homo sapiens) (UniProt O75747); conditions: Compound concentration 1000.0 nM
[2] = target: T1, Mitogen-activated protein kinase kinase kinase kinase 2 (Homo sapiens) (UniProt Q12851); conditions: Compound concentration 1000.0 nM
T1 sequence (whole entry): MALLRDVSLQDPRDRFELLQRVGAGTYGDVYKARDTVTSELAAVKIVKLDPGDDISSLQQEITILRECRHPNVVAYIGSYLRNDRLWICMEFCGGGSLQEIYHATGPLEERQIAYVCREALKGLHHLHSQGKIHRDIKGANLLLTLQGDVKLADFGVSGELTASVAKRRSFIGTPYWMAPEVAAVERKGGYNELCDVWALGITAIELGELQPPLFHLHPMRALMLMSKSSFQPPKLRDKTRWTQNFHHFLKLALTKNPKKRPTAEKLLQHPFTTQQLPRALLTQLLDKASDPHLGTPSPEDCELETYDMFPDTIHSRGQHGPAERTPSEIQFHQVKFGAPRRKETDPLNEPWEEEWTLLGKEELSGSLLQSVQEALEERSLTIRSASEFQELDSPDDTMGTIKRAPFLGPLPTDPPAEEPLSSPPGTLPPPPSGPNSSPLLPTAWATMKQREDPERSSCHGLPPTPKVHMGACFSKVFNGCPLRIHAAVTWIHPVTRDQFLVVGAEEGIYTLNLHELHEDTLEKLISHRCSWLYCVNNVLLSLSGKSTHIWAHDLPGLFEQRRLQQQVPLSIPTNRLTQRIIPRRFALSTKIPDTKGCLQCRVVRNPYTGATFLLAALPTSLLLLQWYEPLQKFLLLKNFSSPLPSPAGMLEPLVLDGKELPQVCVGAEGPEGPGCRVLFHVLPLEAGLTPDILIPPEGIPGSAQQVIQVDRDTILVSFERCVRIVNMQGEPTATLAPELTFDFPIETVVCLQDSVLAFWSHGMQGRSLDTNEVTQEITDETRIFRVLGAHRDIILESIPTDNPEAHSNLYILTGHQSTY

[3] = target: Sodium channel regulatory subunit beta-1 (Rattus norvegicus) (UniProt Q00954); test: NA+/SITE2/RA Eurofins-Panlabs selectivity data (BI); conditions: Compound concentration 10.0 uM
Sodium channel regulatory subunit beta-1 (Rattus norvegicus), sequence (Q00954 whole entry): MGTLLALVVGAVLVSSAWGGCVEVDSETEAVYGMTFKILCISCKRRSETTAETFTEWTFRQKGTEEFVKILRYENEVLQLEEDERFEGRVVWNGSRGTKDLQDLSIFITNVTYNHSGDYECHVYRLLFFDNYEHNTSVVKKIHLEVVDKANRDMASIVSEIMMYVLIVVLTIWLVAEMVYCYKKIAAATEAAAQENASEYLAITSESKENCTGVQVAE

[4] = target: T2, Serine/threonine-protein kinase TAO3 (Homo sapiens) (UniProt Q9H2K8); test: TAOK3 Invitrogen selectivity data (BI); conditions: Compound concentration 3.0 uM
T2 sequence (whole entry): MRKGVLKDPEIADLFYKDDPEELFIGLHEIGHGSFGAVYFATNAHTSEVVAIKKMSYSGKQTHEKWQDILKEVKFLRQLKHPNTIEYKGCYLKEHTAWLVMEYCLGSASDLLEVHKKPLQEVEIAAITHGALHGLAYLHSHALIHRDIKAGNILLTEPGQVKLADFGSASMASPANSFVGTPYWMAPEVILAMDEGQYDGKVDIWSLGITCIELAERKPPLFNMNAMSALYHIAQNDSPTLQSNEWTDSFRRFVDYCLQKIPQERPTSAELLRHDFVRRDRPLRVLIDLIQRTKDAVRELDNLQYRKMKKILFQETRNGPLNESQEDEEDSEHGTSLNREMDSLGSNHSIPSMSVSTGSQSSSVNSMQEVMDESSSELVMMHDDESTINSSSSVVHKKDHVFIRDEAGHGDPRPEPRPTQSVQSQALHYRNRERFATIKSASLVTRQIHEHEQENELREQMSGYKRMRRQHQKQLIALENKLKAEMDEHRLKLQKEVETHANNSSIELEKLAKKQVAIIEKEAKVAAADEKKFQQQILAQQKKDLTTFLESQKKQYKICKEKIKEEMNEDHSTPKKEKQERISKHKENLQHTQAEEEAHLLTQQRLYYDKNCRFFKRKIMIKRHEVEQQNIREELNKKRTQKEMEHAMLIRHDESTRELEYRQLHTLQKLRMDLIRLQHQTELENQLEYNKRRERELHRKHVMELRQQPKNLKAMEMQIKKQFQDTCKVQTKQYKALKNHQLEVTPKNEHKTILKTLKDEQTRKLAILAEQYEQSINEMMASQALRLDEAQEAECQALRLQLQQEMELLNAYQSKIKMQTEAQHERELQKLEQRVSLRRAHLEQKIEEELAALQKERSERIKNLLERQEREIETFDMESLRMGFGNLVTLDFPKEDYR

[5] = target: Substance-P receptor (Homo sapiens) (UniProt P25103); test: NK1/HUM Cerep selectivity data (BI); conditions: Compound concentration 20.0 uM
Substance-P receptor (Homo sapiens), sequence (P25103 whole entry): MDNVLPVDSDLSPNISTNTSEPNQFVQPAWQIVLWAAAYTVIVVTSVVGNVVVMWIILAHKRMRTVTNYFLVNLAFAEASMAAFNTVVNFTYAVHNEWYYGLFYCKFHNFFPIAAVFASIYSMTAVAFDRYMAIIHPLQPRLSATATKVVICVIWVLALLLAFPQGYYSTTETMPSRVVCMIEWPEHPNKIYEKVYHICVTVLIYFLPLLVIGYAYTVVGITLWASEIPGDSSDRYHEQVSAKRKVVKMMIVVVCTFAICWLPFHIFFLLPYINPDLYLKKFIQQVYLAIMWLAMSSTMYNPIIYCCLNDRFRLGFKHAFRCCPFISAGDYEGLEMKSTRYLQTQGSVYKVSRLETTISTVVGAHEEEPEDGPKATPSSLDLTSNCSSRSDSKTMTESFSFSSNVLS

[6] = target: Glucocorticoid receptor (Homo sapiens) (UniProt P04150); test: GLUCOCORTICO Eurofins-Panlabs selectivity data (BI); conditions: Compound concentration 10.0 uM
Glucocorticoid receptor (Homo sapiens), sequence (P04150 whole entry): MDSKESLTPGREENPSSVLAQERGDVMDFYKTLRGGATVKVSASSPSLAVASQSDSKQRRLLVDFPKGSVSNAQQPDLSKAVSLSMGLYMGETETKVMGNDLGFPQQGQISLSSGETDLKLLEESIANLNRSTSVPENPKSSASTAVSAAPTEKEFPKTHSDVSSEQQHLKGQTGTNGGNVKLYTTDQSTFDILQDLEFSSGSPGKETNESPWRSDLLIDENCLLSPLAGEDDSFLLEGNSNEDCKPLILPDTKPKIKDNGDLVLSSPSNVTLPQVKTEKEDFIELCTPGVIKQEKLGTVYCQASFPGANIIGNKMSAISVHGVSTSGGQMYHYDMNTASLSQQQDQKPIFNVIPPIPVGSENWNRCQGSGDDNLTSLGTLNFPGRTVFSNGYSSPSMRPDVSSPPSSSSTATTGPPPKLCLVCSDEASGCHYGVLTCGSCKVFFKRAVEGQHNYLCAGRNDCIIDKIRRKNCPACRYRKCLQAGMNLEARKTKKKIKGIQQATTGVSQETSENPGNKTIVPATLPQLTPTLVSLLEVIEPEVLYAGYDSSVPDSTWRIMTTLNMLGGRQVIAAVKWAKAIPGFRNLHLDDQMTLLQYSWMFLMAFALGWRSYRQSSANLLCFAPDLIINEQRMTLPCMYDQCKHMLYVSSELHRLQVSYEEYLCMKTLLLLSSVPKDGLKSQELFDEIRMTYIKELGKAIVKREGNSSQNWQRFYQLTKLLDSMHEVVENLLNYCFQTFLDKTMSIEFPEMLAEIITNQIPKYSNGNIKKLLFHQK

[7] = target: D(2) dopamine receptor (Homo sapiens) (UniProt P14416); test: D2S/HU Eurofins-Panlabs selectivity data (BI); conditions: Compound concentration 10.0 uM
D(2) dopamine receptor (Homo sapiens), sequence (P14416 whole entry): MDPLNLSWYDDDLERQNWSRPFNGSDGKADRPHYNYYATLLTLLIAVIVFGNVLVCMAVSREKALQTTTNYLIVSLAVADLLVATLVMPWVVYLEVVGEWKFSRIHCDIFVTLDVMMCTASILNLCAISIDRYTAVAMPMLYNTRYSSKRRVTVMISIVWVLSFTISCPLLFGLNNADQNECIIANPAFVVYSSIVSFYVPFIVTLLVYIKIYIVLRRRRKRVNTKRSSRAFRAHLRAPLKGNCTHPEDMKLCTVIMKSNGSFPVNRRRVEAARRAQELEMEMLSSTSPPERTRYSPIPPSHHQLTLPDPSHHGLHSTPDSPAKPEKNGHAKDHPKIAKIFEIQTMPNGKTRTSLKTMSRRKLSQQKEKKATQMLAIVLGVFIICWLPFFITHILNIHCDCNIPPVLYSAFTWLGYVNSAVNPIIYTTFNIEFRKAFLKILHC

[8] = target: T3, G protein-coupled receptor kinase 3 (Homo sapiens) (UniProt P35626); test: ADRBK2 Invitrogen selectivity data (BI); conditions: Compound concentration 3.0 uM
T3 sequence (whole entry): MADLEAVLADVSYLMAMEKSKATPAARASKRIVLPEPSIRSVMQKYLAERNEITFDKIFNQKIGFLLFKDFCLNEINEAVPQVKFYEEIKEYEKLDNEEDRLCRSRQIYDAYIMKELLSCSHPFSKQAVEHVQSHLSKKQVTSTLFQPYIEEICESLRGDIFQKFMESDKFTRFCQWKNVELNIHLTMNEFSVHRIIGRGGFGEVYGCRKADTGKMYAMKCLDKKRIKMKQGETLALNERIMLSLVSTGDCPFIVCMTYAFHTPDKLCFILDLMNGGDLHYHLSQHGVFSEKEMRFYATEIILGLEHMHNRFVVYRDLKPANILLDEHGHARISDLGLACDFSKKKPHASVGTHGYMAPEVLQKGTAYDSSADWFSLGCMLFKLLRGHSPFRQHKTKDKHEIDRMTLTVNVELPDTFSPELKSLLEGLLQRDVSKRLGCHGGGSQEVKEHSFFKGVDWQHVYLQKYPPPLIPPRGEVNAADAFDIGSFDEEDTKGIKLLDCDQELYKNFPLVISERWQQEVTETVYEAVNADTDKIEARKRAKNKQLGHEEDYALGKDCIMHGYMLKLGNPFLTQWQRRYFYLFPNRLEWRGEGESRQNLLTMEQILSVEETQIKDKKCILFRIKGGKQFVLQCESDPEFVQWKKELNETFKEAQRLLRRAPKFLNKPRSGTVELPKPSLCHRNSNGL

[9] = target: Platelet-derived growth factor receptor beta (Homo sapiens) (UniProt P09619); test: PDGFRB Invitrogen selectivity data (BI); conditions: Compound concentration 3.0 uM
[10] = target: Misshapen-like kinase 1 (Homo sapiens) (UniProt Q8N4C8); test: MINK1 Invitrogen selectivity data (BI); conditions: Compound concentration 3.0 uM
Misshapen-like kinase 1 (Homo sapiens), sequence (Q8N4C8 whole entry, looked up): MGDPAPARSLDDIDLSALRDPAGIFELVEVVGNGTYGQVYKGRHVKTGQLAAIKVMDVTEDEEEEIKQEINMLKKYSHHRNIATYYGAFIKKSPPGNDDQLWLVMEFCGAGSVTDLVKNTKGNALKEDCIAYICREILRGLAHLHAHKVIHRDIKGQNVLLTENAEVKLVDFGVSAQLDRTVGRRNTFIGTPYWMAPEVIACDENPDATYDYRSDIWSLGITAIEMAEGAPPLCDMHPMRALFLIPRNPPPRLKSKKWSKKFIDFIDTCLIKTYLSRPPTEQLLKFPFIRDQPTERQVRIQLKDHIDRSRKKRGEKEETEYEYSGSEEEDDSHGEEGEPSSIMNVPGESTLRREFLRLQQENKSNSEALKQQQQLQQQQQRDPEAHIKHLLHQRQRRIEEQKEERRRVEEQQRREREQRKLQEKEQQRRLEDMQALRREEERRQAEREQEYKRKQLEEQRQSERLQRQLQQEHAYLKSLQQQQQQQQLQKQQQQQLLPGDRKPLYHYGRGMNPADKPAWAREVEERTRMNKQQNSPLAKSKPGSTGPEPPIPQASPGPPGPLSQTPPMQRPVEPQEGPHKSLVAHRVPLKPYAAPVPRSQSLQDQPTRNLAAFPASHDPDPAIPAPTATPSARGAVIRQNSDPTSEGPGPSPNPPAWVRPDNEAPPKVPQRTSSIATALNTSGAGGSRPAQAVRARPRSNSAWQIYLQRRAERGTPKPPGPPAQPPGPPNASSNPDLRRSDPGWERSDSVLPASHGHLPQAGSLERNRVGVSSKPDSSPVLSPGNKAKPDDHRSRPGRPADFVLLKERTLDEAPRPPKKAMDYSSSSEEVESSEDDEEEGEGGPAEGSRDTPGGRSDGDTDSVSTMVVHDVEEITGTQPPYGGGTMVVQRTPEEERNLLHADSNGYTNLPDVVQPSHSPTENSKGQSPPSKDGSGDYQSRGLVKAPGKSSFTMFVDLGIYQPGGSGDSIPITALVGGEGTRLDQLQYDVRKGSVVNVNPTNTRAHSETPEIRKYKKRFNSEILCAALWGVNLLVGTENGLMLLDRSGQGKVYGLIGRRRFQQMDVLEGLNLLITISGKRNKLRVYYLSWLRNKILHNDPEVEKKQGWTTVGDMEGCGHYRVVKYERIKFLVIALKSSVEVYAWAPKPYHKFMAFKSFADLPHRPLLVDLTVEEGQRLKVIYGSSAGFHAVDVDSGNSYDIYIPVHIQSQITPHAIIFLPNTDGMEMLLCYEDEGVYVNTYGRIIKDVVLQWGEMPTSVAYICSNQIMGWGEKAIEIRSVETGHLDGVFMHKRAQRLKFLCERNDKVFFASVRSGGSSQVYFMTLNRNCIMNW

Measured: residual activity

Phosphatidylinositol 3-kinase C2 domain-containing subunit gamma (Homo sapiens), sequence (O75747 whole entry, the tested form may be a part): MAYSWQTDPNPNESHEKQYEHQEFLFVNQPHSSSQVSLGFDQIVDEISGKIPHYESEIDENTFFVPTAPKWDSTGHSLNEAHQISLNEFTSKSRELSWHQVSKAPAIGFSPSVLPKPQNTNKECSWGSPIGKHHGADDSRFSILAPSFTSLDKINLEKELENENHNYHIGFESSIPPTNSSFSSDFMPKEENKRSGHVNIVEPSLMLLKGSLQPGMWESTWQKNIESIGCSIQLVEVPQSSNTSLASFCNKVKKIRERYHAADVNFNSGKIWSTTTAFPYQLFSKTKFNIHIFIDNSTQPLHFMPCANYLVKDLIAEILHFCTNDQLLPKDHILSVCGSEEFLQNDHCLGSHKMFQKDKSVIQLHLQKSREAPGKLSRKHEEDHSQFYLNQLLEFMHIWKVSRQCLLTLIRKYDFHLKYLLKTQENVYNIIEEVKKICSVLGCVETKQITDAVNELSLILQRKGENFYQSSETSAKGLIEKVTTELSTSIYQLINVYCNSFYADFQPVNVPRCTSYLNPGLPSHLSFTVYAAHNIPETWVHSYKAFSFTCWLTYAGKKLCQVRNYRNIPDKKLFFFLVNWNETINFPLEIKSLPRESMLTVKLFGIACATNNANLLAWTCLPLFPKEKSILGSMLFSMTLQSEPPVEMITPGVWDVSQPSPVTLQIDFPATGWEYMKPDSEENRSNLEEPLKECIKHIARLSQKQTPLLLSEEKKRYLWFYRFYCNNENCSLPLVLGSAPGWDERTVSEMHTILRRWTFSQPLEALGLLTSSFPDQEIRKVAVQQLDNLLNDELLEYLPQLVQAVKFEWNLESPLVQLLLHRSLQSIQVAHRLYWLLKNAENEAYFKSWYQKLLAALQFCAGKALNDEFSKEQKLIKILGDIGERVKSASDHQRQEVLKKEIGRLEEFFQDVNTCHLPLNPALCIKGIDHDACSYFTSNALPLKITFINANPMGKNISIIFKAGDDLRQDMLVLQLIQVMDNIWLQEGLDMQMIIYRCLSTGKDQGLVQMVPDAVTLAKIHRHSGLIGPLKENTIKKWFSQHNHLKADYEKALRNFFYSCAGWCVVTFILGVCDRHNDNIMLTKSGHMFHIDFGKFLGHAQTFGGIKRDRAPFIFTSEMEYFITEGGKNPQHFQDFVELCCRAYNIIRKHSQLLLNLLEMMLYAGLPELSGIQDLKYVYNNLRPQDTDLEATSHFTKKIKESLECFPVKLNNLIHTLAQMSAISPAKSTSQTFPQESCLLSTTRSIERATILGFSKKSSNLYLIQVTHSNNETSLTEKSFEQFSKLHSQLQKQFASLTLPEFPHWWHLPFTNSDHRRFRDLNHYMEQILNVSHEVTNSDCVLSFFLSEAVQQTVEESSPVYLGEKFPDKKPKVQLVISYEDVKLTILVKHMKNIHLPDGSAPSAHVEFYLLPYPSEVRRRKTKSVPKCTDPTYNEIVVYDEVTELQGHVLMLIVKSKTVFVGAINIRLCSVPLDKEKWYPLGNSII

CN(C)C(=O)Cn1cc(-c2nc(C3(c4ccc(-c5cnc(N)nc5)cc4)CC3)no2)cn1 [BI 0153]
inactive: [1] 76% | [2] 89%

CN(C)C(=O)Cn1cc(-c2nc([C@@](C)(c3ccc(-c4cnc(N)nc4)cc3)C3CC3)no2)cn1 [BI 665915]
inactive: [3] 84% | [1] 66% | [4] 104% | [5] 95% | [6] 111% | [2] 100% | [7] 94% | [8] 100% | [9] 94.5% | [10] 93%
